Results taken from PMC9767854, “Discovery and mechanism studies of a novel ATG4B inhibitor Ebselen by drug repurposing and its anti-colorectal cancer effects in mice” (Cell & Bioscience, 2022).

Tests used:
ATG4B [1] = target: T1, ATG4B (Homo sapiens, UniProt Q9Y4P1); assay: FRET-based assay for ATG4B activity; format: biochemical
T1 construct: 6xHis; made in house; host or cells: E. coli BL21(DE3)
T1 sequence (Q9Y4P1 1-393): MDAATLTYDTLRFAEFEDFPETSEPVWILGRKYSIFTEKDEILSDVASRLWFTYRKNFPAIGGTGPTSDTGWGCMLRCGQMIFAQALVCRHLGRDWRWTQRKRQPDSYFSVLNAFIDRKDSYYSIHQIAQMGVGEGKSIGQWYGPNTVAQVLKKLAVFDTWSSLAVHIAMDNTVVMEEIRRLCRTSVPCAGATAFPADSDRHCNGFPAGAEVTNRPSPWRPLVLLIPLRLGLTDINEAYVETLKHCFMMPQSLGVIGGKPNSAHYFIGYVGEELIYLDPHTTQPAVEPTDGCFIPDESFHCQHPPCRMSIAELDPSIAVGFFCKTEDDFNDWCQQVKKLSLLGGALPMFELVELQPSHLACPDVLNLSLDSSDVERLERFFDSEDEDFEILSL
Description: FRET-based assay for ATG4B or ATG4A activity was operated as previously described [5, 17]. Briefly, Recombinant protein ATG4B (0.75 μg/ml) or ATG4A (5 μg/ml) was incubated with compounds in reaction buffer (150 mM NaCl, 20 mM Tris–HCl, pH 8.0, 0.1% CHAPS, 1 mM EDTA) at 37 °C. After 30 min, substrate FRET-GATE-16 (50 μg/ml) was added to a final volume of 50 μl. The reaction was recorded via relative fluorescence intensity ratio of 527 nm/477 nm (RFU). The final inhibition rate of the compound for ATG4 was calculated as: (RFUcompound-RFUNC)/(RFUCON-RFUNC) × 100%; respectively, NC as negative control without inhibitor, CON as control without enzymes.

[2] = target: T2, ATG4B (cell lysates from ATG4B-Flag 293 T) (Homo sapiens, UniProt Q9Y4P1); assay: In vitro cleavage assay of LC3B-GST with ATG4B-overexpressing cell lysates; format: biochemical; details: compounds 10 μM, 30 min at 37 °C
T2 construct: expressed in transfected cells; host or cells: 293T (ATG4B-Flag 293 T line)
Description: A, B Cell lysates (1.5 μg) from ATG4B-Flag 293 T were incubated with different compounds (10 μM) for 30 min at 37 °C, then recombinant LC3B-GST (3 μg) were added up to 20 μl and inhibitions were detected by SDS-PAGE and CBB staining (A). B Statistical chart of gel results of three repeated experiments. Ebselen was abbreviated as Ebs, the same below. CON as control without lysate, NC as negative control without compound.

Caspase 2 = target: T3, Caspase 2 (Homo sapiens, UniProt P42575); assay: Caspase activity assay kit, CASP2; format: biochemical; details: 10 μM
T3 construct: Beyotime (assay kit only) C1107
Description: (§1) The enzyme activity of Caspase 1, Caspase 2, Caspase 3, Caspase 4, Caspase 6, Caspase 8 and Caspase 9 were determined via the activity assay kits (C1101, C1107, C1115, C1121, C1135, C1151 and C1157) from Beyotime (Shanghai, China). Then the experimental procedures were performed according to the manufacturer’s protocols.

Caspase 3 = target: T4, Caspase 3 (Homo sapiens, UniProt P42574); assay: Caspase activity assay kit, CASP3; format: biochemical; details: 10 μM
T4 construct: Beyotime (assay kit only) C1115
Description: as §1

[3] = system: Caspase 1, 2, 3, 4, 6, 8 and 9; assay: Caspase activity assay kits, caspase panel; format: biochemical; details: 10 μM; most caspases other than CASP2 and CASP3
Description: as §1

ATG4B [4] = target: T1, ATG4B; assay: In vitro thermal shift assay, ATG4B WT; format: binding; details: ATG4B 100 nM, Ebselen 1 μM, compared with DMSO
Description: (§2) For in vitro thermal shift assay, recombinant protein ATG4B or C74S mutant (100 nM) was incubated with Ebselen (1 μM) (DMSO as control) in the PCR tubes. The PCR instrument program was set at 25 °C for 10 min, 37 °C to 70 °C for 30 min and followed by cooling tubes for 5 min at room temperature. Then centrifuged at 12,000 rpm for 10 min at 4 °C, soluble fractions were separated from precipitates to be analyzed by SDS-PAGE and immunoblotting.

ATG4B C74S mutant = target: T5, ATG4B C74S mutant (Homo sapiens, UniProt Q9Y4P1, C74S); assay: In vitro thermal shift assay, ATG4B C74S mutant; format: binding; details: C74S mutant 100 nM, Ebselen 1 μM, compared with DMSO
T5 construct: 6xHis; made in house; host or cells: E. coli BL21(DE3)
Description: as §2

HCT116 = assay: Autophagy flux by LC3B-II western blot in HCT116; format: cell-based; details: Ebselen 5 and 10 μM with CQ 40 μM
Description: Fig. 5 Ebselen suppresses autophagy flux via inhibition of ATG4B. A, B HeLa cells were treated with Torin 1 (2 μM) or CQ (40 μM) and detected by western blot. C, D SW620 cells were transduced with sgCon and sgATG4B lentiviruses, respectively. Then cells were treated with CQ (40 μM) and detected by western blot. E, F HCT116 were treated with Ebselen (5 and 10 μM) or CQ (40 μM) and subjected to western blot. G, H SW620 were treated with Ebselen (10 μM) or CQ (40 μM) and western blotting was carried out to detect the protein levels. I, J Immunofluorescence analysis of endogenous LC3B in HCT116 treated with Ebselen (10 μM) or CQ (40 μM). Dots numbers for LC3B were derived from counting at least 20 cells and 5 fields from three independent replicated experiments. Bar = 10 μm. K HCT116 cells were treated with 2 μM Torin 1 in the presence or absence of 10 μM Ebselen for 12 h, then the level ratio of long-lived proteins was measured by flow cytometry
Immunoblotting assay was performed reportedly previously. Commonly, cells were lysed in ice-cold RIPA lysis buffer (Beyotime, P0013B) supplemented with Pierce™ protease inhibitor tablet (ThermoFisher Scientific, A32965). […]

ATG4B KO HCT116 = assay: Cell viability by CCK-8 assay, ATG4B KO HCT116; format: cell-based
Description: WT/ATG4B KO HCT116, WT/ATG4B KO SW620 and WT/ATG4B KO RKO cells were seeded in 96-well plate at 1000–1500 cells per well for cell viability assay, and seed in 6-well plate at 1 × 10^5 cells per well for cell number counting. After 12 h, the indicated drugs were added to the medium and cultured for another 96 h. Total viable cell numbers were counted by a cell counter (BioRAD), and cell viability was determined by cell-count-8 assay kit (CCK-8, Bimake, B34304) according to the manufacturer’s protocol.

[5] = Body weight and organ H&E in xenografted mice; format: in vivo, BALB/c-nu/nu mice; details: 5, 10, 20 mg/kg i.p. every two days
Description: Four- to six-weeks-old BALB/C nu/nu female mice purchased from the Experimental Animal Center of Sun Yat-Sen University, were approved by the Animal Ethics Committee at Sun Yat-sen University and kept in specific-pathogen-free environment. Approximately 2 × 10^6 SW620 cells or 1 × 10^7 HCT116 cells were injected subcutaneously into the dorsal flank on the right side of the mice. Different groups were divided randomly when the tumor volume was approximately 60–80 mm^3, before drug administration intraperitoneally (i.p.). Tumor volume was measured by calipers and calculated using the equation: 0.5 × length × width^2. At the end of the experiments, the mice were sacrificed and tumors were dissected and weighed. In particular, we employed Servicebio (Wuhan, China) to carry out H&E staining and immunohistochemistry assay.
Supplementary file 13578_2022_944_MOESM1_ESM.docx: Additional file 1: Figure S1. Screening of ATG4B inhibitors based on the approved drugs library by FRET assay. […] (D) Candidate compound number and name correspondence table, and IC50 calculation of nine commercially available compounds for ATG4B by FRET assay. Figure S2. […] Figure S3. […] Figure S5. […] Figure S6.

T4 sequence (P42574 29-175 limits assumed, species assumed): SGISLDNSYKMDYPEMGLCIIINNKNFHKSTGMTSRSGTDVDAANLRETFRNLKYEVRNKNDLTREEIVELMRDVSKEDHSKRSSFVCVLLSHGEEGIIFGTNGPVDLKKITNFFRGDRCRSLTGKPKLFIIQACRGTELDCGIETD
T4 sequence (P42574 176-277 limits assumed, species assumed): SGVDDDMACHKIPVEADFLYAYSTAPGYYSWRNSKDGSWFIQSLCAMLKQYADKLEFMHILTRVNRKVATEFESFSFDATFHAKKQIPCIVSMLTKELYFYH
T5 sequence (Q9Y4P1 whole entry C74S): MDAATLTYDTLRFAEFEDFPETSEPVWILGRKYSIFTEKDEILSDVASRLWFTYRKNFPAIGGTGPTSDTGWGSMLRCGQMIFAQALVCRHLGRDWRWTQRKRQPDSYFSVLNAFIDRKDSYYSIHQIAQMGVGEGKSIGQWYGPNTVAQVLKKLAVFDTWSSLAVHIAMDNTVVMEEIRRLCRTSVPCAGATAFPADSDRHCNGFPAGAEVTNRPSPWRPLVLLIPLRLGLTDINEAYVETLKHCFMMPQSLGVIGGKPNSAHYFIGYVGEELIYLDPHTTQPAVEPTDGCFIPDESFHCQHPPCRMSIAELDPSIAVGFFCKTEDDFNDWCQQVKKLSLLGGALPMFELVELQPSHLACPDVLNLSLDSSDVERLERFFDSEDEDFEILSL
T3 sequence (P42575 170-325 limits assumed, species assumed): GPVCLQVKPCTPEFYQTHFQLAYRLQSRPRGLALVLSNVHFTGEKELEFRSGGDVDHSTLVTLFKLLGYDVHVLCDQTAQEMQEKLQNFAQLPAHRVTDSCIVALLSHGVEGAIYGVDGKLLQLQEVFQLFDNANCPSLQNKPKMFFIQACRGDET
T3 sequence (P42575 348-452 limits assumed, species assumed): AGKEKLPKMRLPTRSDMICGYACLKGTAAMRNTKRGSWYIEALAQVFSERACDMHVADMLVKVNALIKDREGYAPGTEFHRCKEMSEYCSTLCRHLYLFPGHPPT

In the case of O=c1c2ccccc2[se]n1-c1ccccc1 [Ebselen], the “inhibition rate against ATG4B WT” value (ATG4B [1]; Ebselen 0.5 μM, 15-90 min, compared to 2CS) is reported as “higher inhibition rate”, the IC50 (ATG4B [1]; recombinant ATG4B 0.75 μg/ml, 30 min preincubation at 37 °C) is reported as 0.189 µM and the “cleavage activity of ATG4B on LC3B-GST in cell lysates” value [2] is reported as “strongly suppressed”. The “effect on CASP2 activity” value (Caspase 2) was “certain inhibition”, the “effect on CASP3 activity” value (Caspase 3) was “certain inhibition” and the “effect on most caspase activities” value [3] was “no significant effect”. For the same compound, the “thermal stability of wild type ATG4B” value (ATG4B [4]) was “strikingly improved”, the “thermal stability of C74S mutant” value (ATG4B C74S mutant) was “still a little increased” and the “autophagic flux (LC3B-II)” value (HCT116) was “inhibition of autophagic flux”. For the same compound, the “effect on viability of ATG4B deficient cells” value (ATG4B KO HCT116; Fig. 6F) was “almost no effect”, the IC50 (ATG4B KO HCT116; Homo sapiens, HCT-116, CCK-8, 96 h) was 28.1 µM and the “body weight change or organs damage” value [5] was “no obvious mice body weight change or organs damage”.
